Earlier results, collected in US12527979B2, “Treatment of HER3-mutated cancer by administration of anti-HER3 antibody-drug conjugate” (DAIICHI SANKYO COMPANY, LIMITED, priority 2018, dated 2026).
Where two headings read alike, the source gives them in different places.

How the values were obtained:
HER3-mutated cancers [1] = conditions: in vitro and in vivo, in situations where HER2 is overexpressed
HER3-mutated cancers [2] = conditions: clinical studies
topoisomerase I = biological target: T1, topoisomerase I (Homo sapiens, UniProt P11387)
T1 sequence (P11387 1-765): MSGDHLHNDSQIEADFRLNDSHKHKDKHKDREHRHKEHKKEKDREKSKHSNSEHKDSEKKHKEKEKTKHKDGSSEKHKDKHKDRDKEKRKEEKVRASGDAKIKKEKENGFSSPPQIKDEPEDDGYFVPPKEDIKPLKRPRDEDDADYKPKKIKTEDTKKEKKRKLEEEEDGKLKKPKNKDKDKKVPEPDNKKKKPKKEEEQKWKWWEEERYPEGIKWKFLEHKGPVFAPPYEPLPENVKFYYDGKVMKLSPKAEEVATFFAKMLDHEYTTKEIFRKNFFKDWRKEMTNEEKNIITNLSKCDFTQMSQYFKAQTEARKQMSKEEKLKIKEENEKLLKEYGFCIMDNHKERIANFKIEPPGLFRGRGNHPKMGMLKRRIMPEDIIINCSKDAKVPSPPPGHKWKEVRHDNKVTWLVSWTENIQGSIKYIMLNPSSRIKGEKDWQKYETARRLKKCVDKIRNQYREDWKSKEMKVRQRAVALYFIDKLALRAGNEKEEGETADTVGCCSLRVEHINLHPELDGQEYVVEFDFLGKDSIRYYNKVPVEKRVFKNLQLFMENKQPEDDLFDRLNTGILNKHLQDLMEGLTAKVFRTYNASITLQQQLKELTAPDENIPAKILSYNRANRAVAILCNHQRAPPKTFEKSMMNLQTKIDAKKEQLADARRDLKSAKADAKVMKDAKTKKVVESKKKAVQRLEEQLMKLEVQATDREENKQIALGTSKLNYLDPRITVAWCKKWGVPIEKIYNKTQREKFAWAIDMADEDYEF

Structure (SMILES): CS(=O)(=O)CCNCc1ccc(-c2ccc3ncnc(Nc4ccc(OCc5cccc(F)c5)c(Cl)c4)c3c2)o1 [lapatinib]
- effectiveness against HER3-mutated cancers (HER3-mutated cancers [1]): exhibited effectiveness

Structure (SMILES): CCOc1cc2ncc(C#N)c(Nc3ccc(OCc4ccccn4)c(Cl)c3)c2cc1NC(=O)/C=C/CN(C)C [neratinib]
- effectiveness against HER3-mutated cancers (HER3-mutated cancers [2]): no effectiveness

Structure (SMILES): CC[C@@]1(O)C(=O)OCc2c1cc1n(c2=O)Cc2c-1nc1cc(F)c(C)c3c1c2[C@@H](NC(=O)CO)CC3
- topoisomerase I inhibitory effect (topoisomerase I): confirmed to have a topoisomerase I inhibitory effect
